Reference: the NIST ThermoML archive (doi:10.1021/je060170c)

Assay: xn = mol fraction of the nth substance listed
Settings: 101 kPa, Liquid; for viscosity: Anton Paar Stabinger viscometer

Cc1cc(C)cc(C)c1 [1,3,5-trimethylbenzene] + COc1ccccc1
Settings	mass density [kg/m3]	speed of sound [m/s]	viscosity [mPa·s]
288.15 K, x2 = 0	869.169	1377.5	0.754
288.15 K, x2 = 0.074	876.661	1383.1	0.769
288.15 K, x2 = 0.181	887.986	1390.7	0.802
288.15 K, x2 = 0.334	905.232	1400.3	0.849
288.15 K, x2 = 0.4982	925.26	1408	0.893
288.15 K, x2 = 0.628	942.318	1420.3	0.965
288.15 K, x2 = 0.7512	959.611	1426.3	1.005
288.15 K, x2 = 0.814	968.893	1433.8	1.061
288.15 K, x2 = 0.875	978.238	1438.6	1.101
288.15 K, x2 = 0.94	988.554	1445.6	1.158
293.15 K, x2 = 0	865.072	1357	0.705
293.15 K, x2 = 0.074	872.553	1361.7	0.716
293.15 K, x2 = 0.181	883.818	1368.1	0.743
293.15 K, x2 = 0.334	900.968	1376.2	0.782
293.15 K, x2 = 0.4982	920.888	1383.3	0.819
293.15 K, x2 = 0.628	937.858	1395.1	0.883
293.15 K, x2 = 0.7512	955.065	1401.5	0.92
293.15 K, x2 = 0.814	964.301	1410	0.971
293.15 K, x2 = 0.875	973.59	1415.8	1.007
293.15 K, x2 = 0.94	983.844	1424.2	1.058
298.15 K, x2 = 0	861.062	1336.9	0.661
298.15 K, x2 = 0.074	868.529	1342.6	0.674
298.15 K, x2 = 0.181	879.758	1350.1	0.697
298.15 K, x2 = 0.334	896.835	1360	0.733
298.15 K, x2 = 0.4982	916.671	1370.5	0.767
298.15 K, x2 = 0.628	933.575	1379.4	0.827
298.15 K, x2 = 0.7512	950.712	1388.1	0.863
298.15 K, x2 = 0.814	959.91	1392.9	0.912
298.15 K, x2 = 0.875	969.162	1397.6	0.946
298.15 K, x2 = 0.94	979.363	1402.8	0.993
303.15 K, x2 = 0	856.95	1316.8	0.621
303.15 K, x2 = 0.074	864.41	1320.5	0.633
303.15 K, x2 = 0.181	875.58	1326.7	0.65
303.15 K, x2 = 0.334	892.57	1336.1	0.677
303.15 K, x2 = 0.4982	912.31	1347.1	0.706
303.15 K, x2 = 0.628	929.13	1356.2	0.758
303.15 K, x2 = 0.7512	946.19	1365.4	0.792
303.15 K, x2 = 0.814	955.34	1370.5	0.837
303.15 K, x2 = 0.875	964.55	1375.6	0.87
303.15 K, x2 = 0.94	974.7	1382.8	0.912

COc1ccccc1 [anisole] + Cc1ccc(C)cc1
Settings	mass density [kg/m3]	speed of sound [m/s]	viscosity [mPa·s]
288.15 K, x1 = 0.0822	875.328	1360.3	0.728
288.15 K, x1 = 0.187	888.441	1373.1	0.778
288.15 K, x1 = 0.31	904.181	1384.4	0.829
288.15 K, x1 = 0.47	925.057	1395.9	0.884
288.15 K, x1 = 0.637	947.54	1410.4	0.958
288.15 K, x1 = 0.747	962.692	1420.6	1.013
288.15 K, x1 = 0.822	973.119	1437	1.109
288.15 K, x1 = 0.888	982.387	1443	1.145
288.15 K, x1 = 0.949	991.051	1446.3	1.167
288.15 K, x1 = 1	998.44	1449.1	1.188
293.15 K, x1 = 0.0822	871.032	1339.5	0.674
293.15 K, x1 = 0.187	884.105	1352.5	0.717
293.15 K, x1 = 0.31	899.758	1364	0.761
293.15 K, x1 = 0.47	920.561	1375.3	0.809
293.15 K, x1 = 0.637	942.968	1389.9	0.875
293.15 K, x1 = 0.747	958.092	1400.3	0.925
293.15 K, x1 = 0.822	968.502	1416.7	1.013
293.15 K, x1 = 0.888	977.769	1422.5	1.046
293.15 K, x1 = 0.949	986.356	1425.8	1.066
293.15 K, x1 = 1	993.651	1428.5	1.084
298.15 K, x1 = 0.0822	866.765	1317.4	0.635
298.15 K, x1 = 0.187	879.807	1326.5	0.674
298.15 K, x1 = 0.31	895.413	1337.5	0.714
298.15 K, x1 = 0.47	916.177	1352.2	0.759
298.15 K, x1 = 0.637	938.559	1368.2	0.821
298.15 K, x1 = 0.747	953.665	1379.3	0.868
298.15 K, x1 = 0.822	964.094	1387.4	0.952
298.15 K, x1 = 0.888	973.344	1394.8	0.985
298.15 K, x1 = 0.949	981.943	1401.8	1.003
298.15 K, x1 = 1	989.105	1408	1.017
303.15 K, x1 = 0.0822	862.434	1296.9	0.597
303.15 K, x1 = 0.187	875.432	1306.5	0.628
303.15 K, x1 = 0.31	890.974	1317.6	0.662
303.15 K, x1 = 0.47	911.659	1332.7	0.7
303.15 K, x1 = 0.637	933.983	1349.1	0.754
303.15 K, x1 = 0.747	949.069	1360.5	0.798
303.15 K, x1 = 0.822	959.511	1368.5	0.875
303.15 K, x1 = 0.888	968.761	1375.6	0.903
303.15 K, x1 = 0.949	977.313	1382.3	0.918
303.15 K, x1 = 1	984.372	1387.7	0.931

COc1ccccc1 [anisole] + Cc1cccc(C)c1
Settings	mass density [kg/m3]	speed of sound [m/s]	viscosity [mPa·s]
288.15 K, x1 = 0.1144	882.011	1369.2	0.696
288.15 K, x1 = 0.2566	899.519	1380.5	0.745
288.15 K, x1 = 0.3821	915.327	1390.9	0.799
288.15 K, x1 = 0.5034	930.924	1401	0.856
288.15 K, x1 = 0.6546	950.873	1414.1	0.933
288.15 K, x1 = 0.7535	964.193	1424	0.995
288.15 K, x1 = 0.8432	976.464	1432	1.049
288.15 K, x1 = 0.9133	986.213	1439.3	1.103
288.15 K, x1 = 0.9576	992.455	1445.2	1.149
288.15 K, x1 = 1	998.44	1449.1	1.188
293.15 K, x1 = 0.1144	877.742	1351	0.645
293.15 K, x1 = 0.2566	895.185	1362.2	0.688
293.15 K, x1 = 0.3821	910.905	1372.1	0.734
293.15 K, x1 = 0.5034	926.441	1381.4	0.783
293.15 K, x1 = 0.6546	946.321	1393.9	0.851
293.15 K, x1 = 0.7535	959.605	1402.8	0.908
293.15 K, x1 = 0.8432	971.843	1411.1	0.958
293.15 K, x1 = 0.9133	981.575	1418.4	1.008
293.15 K, x1 = 0.9576	987.755	1423.6	1.051
293.15 K, x1 = 1	993.651	1428.5	1.084
298.15 K, x1 = 0.1144	873.473	1328.5	0.607
298.15 K, x1 = 0.2566	890.874	1339.2	0.647
298.15 K, x1 = 0.3821	906.561	1349.8	0.687
298.15 K, x1 = 0.5034	922.056	1360.1	0.734
298.15 K, x1 = 0.6546	941.9	1373.5	0.798
298.15 K, x1 = 0.7535	955.192	1382.5	0.852
298.15 K, x1 = 0.8432	967.423	1391	0.899
298.15 K, x1 = 0.9133	977.136	1398.1	0.947
298.15 K, x1 = 0.9576	983.283	1403.1	0.988
298.15 K, x1 = 1	989.15	1408	1.017
303.15 K, x1 = 0.1144	869.172	1308	0.574
303.15 K, x1 = 0.2566	886.499	1318.7	0.604
303.15 K, x1 = 0.3821	902.126	1328.8	0.639
303.15 K, x1 = 0.5034	917.578	1339.1	0.677
303.15 K, x1 = 0.6546	937.368	1352.6	0.733
303.15 K, x1 = 0.7535	950.619	1362	0.782
303.15 K, x1 = 0.8432	962.844	1371	0.824
303.15 K, x1 = 0.9133	972.502	1378.3	0.868
303.15 K, x1 = 0.9576	978.641	1383.1	0.905
303.15 K, x1 = 1	984.372	1387.7	0.931
